# Measured values as given in article PMC6838110 (Nature Communications, 2019).
# Tests used:
# Format in all cases: cell-based
# DNA-PKcs = target: T1, DNA-PKcs (Homo sapiens, UniProt P78527); assay: DNA-PKcs autophosphorylation (pSer2056) ELISA in IR-treated A549 cells; settings: geometric mean; Supplementary Table 1; read-out: Compound IC50 DNA-PKcs
# T1 construct: evaluated in A549 cells following IR by measuring DNA-PKcs autophosphorylation on Ser2056; endogenous in cells; host or cells: A549
# PI3Kα = PI3Kα (Homo sapiens, UniProt P42336); assay: PI3K isoform assay, pAKT Thr308 ELISA in BT474 cells; settings: geometric mean; Supplementary Table 1; read-out: Compound IC50 PI3K (first PI3K line)
# Protocol: (§1) BT474 (PI3Kα), MDA-MB-468 (PI3Kβ), RAW-264 (PI3Kγ) and JEKO-1 (PI3Kδ). Levels of phospho-AKT Thr308, a downstream target for PI3K, was used as a marker of PI3K […]
# (§2) BT474 and MDA -MB-468 cells were seeded into 384-well plates
# (§3) (5600 cells/well) and incubated overnight prior to compound treatment for 2 hours. […]
# (§4) Compounds were added to […]
# (§5) cells/plates using an Echo 555 Liquid Handler (LabCyte). BT474 and MDA -MB-468 cells were lysed in 25 µL lysis buffer (25 mM Tris-HCl, 3 mM EDTA, 3 mM EGTA, 50 mM NaF, 2 mM Na3VO4, 0.27 M sucrose, 10 mM β-glycerophosphate, 5 mM Na2P2O7, 0.5% Triton […]
# (§6) X-100) for 30 minutes at RT. […]
# (§7) Lysates were transferred onto ELISA plates pre-coated with anti-AKT antibody (Cell Signalling #7144) that had previously been blocked with 1% BSA in PBS-T and incubated overnight at 4°C. Plates were then incubated with mouse anti-phosphoAKT Thr308 (Cell Signalling Technology #7144) for 2 hours, followed by an anti-mouse HRP-conjugated antibody (Cell Signalling Technology #7144) for 2 hours. Plates were washed between antibody incubation steps with PBS-T. QuantaBlu substrate working solution […]
# (§8) (ThermoScientific #15169) was added to each well according to the manufacturer’s instructions and stop solution was added 60 minutes later. Fluorescence was measured
# mTOR = target: T2, mTOR (Homo sapiens, UniProt P42345); assay: mTOR (pAKT Ser473) imaging assay in MDA-MB-468 cells; settings: geometric mean; Supplementary Table 1; read-out: Compound IC50 mTOR
# T2 construct: mTOR (pAKT Ser473) in MDA-MB-468; endogenous in cells; host or cells: MDA-MB-468
# ATM = target: T3, ATM (Homo sapiens, UniProt Q13315); assay: ATM pSer1981 imaging assay in irradiated HT29 cells; settings: geometric mean; Supplementary Table 1; read-out: Compound IC50 ATM
# T3 construct: ATM (pATM Ser1981) in HT29; endogenous in cells; host or cells: HT-29
# Protocol: Following this final incubation, the plates were washed twice using PBS, s ealed with black plate seals and then read on a CellInsight™ imaging platform (Thermo Scientific) with 10x objective. A two-laser setup was used to analyse nuclear staining with Hoechst (405 nm) and secondary antibody staining of pATM (488 nm). […]
# [1] = system: secondary pharmacology target; assay: Cellular selectivity across secondary pharmacology targets; settings: versus cellular DNA-PKcs
# ATR = target: T4, ATR (Homo sapiens, UniProt Q13535); assay: ATR (pCHK1 Ser345) imaging assay in 4NQO-treated HT29 cells; settings: geometric mean; Supplementary Table 1; read-out: Compound IC50 ATR
# T4 construct: ATR (pCHK1 Ser345) in HT29; endogenous in cells; host or cells: HT-29
# Protocol: HT-29 cells by an imaging-based assay. HT-29 cells were dispensed into 384-well Greiner plates (#781090) to give 6000 cells/well in a total volume of 40 µL cell media and incubated overnight. Test compounds and reference controls were dosed directly into the cell plates using a Labcyte Echo 555 acoustic dispenser. The cell plates were then incubated for 1 hour at 37°C before being dosed with 3 µM of 4NQO using a Labcyte Echo 555 acoustic dispenser. The cells were incubated for a further 1 h our and were then fixed by the addition of 20 µL 3.7% formaldehyde in PBS and incubated for 20 min utes at RT. The plates were subsequently washed on a Bioteck EL406 3x using PBS-T, and then permeabilized with the addition of 20 µL of 0.1% Triton X-100 in PBS for 10 minutes at RT. Following permeabilization, the plates were washed 3x with PBST and incubated with 20 µL of primary antibody (1:250 anti-Chk1 pSer345 in PBS-T) overnight at 4°C. The next day, the plates were washed 3x with PBS and incubated with 20 µL of secondary antibody (1:500 AlexaFluor 488 goat anti-rabbit IgG and 1:5000 Hoechst stock solution [10 mg/mL ] in antibody buffer) for 2 hours at RT. Following this final incubation, the plates were washed 3x with PBS, sealed with black plate seals and then read on a CellInsight imaging platform (Thermo Scientific) with 10x objective. A two -laser setup was used to analyse nuclear staining with Hoechst (405 nm) and secondary antibody staining of pChk1 (488 nm). […]
# PI3Kγ = target: T5, PI3Kγ (Mus musculus, UniProt Q9JHG7); assay: PI3K isoform assay, pAKT Thr308 ELISA in RAW-264 cells; settings: geometric mean; Supplementary Table 1; read-out: Compound IC50 PI3K (third PI3K line)
# T5 construct: RAW-264 (PI3Kγ); endogenous in cells; host or cells: RAW-264
# Protocol: as §1
# RAW-264 and JEKO-1 cells were seeded directly into 384-well plates containing compounds (1 x 10^5 cells/well) and incubated for 1 hour. Compounds were added to cells/plates using an Echo 555 Liquid Handler (LabCyte). […]
# as §7, with “X-100) for 30 minutes at RT. To stimulate AKT phosphorylation, C5a (complement 5a) anaphylatoxin trifluoroacetate salt (20 nM; Bachem) was added to RAW-264 cells for 3 minutes and anti-human IgM (120 µg/mL; Stratech) was added to JEKO-1 cells for 10 minutes prior to cell lysis. RAW-264 and JEKO-1 cells were then lysed for 30 minutes at RT. Lysates” for “Lysates”
# as §8
# PI3Kβ = target: T6, PI3Kβ (Homo sapiens, UniProt P42338); assay: PI3K isoform assay, pAKT Thr308 ELISA in MDA-MB-468 cells; settings: geometric mean; Supplementary Table 1; read-out: Compound IC50 PI3K (second PI3K line)
# T6 construct: MDA-MB-468 (PI3Kβ); endogenous in cells; host or cells: MDA-MB-468
# Protocol: as §1, §2, §3, §4, §5, §6, §7, §8
# PI3Kδ = target: T7, PI3Kδ (Homo sapiens, UniProt O00329); assay: PI3K isoform assay, pAKT Thr308 ELISA in JEKO-1 cells; settings: geometric mean; Supplementary Table 1; read-out: Compound IC50 PI3K (fourth PI3K line)
# T7 construct: JEKO-1 (PI3Kδ) cells; endogenous in cells; host or cells: JEKO-1
# Protocol: as §1
# as §5, with “RAW-264 and JEKO-1 cells were seeded directly into 384-well plates containing compounds (1 x 10^5 cells/well) and incubated for 1 hour. Compounds were added to cells/plates” for “cells/plates”
# as §6
# 3 minutes and anti-human IgM (120 µg/mL; Stratech) was added to JEKO-1 cells for 10 minutes prior to cell lysis. RAW-264 and JEKO-1 cells were then lysed for 30 minutes at RT. Lysates were transferred onto ELISA plates pre-coated with anti-AKT antibody (Cell Signalling #7144) that had previously been blocked with 1% BSA in PBS-T and incubated overnight at 4°C. Plates were then incubated with mouse anti-phosphoAKT Thr308 (Cell Signalling Technology #7144) for 2 hours, followed by an anti-mouse HRP-conjugated antibody (Cell Signalling Technology #7144) for 2 hours. […]
# as §8
# T4 sequence (Q13535 whole entry): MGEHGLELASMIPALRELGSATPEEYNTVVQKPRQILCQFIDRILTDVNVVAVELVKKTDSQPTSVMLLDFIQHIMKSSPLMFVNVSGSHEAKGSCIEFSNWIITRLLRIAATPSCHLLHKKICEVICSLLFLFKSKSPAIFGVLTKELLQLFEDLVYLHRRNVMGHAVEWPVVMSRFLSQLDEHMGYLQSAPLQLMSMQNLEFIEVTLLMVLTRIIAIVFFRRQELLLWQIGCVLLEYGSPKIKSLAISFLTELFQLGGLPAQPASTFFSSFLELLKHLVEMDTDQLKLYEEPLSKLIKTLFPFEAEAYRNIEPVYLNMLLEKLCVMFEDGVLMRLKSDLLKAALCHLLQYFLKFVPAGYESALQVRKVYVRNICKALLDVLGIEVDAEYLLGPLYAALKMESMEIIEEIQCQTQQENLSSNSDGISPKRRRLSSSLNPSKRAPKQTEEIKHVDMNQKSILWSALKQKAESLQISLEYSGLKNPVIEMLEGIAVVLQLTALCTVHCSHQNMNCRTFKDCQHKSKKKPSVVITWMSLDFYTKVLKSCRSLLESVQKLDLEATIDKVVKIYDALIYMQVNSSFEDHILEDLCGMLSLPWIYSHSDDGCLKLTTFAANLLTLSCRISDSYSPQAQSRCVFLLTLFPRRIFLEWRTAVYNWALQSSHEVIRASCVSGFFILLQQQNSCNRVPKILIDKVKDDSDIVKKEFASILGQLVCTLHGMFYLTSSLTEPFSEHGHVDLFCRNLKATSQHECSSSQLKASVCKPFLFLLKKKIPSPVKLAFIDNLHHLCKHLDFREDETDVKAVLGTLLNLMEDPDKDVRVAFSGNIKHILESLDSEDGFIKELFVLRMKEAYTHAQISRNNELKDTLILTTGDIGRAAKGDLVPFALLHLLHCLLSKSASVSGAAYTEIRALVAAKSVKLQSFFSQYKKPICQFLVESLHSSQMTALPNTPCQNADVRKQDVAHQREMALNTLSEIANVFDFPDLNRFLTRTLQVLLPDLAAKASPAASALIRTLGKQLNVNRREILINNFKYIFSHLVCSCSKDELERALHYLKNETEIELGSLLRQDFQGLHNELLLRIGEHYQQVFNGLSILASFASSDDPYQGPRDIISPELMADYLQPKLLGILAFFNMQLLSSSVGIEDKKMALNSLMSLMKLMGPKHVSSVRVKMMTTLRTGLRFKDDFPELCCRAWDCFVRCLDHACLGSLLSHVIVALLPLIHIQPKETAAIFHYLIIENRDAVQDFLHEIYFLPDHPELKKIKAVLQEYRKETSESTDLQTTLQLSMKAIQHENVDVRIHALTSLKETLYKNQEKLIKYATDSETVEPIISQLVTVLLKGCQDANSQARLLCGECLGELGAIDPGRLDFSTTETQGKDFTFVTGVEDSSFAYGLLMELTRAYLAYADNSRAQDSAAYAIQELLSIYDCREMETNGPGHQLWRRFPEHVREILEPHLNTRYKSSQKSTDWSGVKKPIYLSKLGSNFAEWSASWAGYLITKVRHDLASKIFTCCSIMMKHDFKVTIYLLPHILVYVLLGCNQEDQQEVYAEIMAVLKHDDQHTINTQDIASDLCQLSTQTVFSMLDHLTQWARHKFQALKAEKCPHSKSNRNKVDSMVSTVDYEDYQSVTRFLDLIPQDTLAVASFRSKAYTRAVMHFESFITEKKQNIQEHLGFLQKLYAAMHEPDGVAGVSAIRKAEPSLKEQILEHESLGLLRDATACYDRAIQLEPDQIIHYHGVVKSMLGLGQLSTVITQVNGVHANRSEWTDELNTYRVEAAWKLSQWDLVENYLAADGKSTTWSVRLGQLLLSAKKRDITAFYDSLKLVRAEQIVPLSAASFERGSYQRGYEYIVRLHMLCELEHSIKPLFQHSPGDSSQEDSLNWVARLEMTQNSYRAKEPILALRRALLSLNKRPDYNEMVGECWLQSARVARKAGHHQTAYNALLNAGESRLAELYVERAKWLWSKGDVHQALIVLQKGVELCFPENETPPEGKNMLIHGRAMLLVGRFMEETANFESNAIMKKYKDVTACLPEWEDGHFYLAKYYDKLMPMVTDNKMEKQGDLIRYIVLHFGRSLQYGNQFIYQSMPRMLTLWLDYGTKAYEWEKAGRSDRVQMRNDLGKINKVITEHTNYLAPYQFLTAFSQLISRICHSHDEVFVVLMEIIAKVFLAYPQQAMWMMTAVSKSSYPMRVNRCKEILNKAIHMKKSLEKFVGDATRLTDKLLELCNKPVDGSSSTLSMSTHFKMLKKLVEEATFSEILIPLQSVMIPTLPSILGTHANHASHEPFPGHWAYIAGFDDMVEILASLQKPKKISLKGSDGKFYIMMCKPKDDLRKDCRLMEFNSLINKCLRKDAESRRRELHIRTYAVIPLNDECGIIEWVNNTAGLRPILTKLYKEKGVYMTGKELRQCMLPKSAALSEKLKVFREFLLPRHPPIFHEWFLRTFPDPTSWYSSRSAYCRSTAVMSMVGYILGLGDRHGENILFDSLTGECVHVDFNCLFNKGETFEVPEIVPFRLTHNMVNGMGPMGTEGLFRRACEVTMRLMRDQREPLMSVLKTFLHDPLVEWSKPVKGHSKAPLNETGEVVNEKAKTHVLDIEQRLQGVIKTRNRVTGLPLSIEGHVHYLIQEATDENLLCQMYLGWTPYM
# T4 sequence (Q8WXE1 whole entry partner): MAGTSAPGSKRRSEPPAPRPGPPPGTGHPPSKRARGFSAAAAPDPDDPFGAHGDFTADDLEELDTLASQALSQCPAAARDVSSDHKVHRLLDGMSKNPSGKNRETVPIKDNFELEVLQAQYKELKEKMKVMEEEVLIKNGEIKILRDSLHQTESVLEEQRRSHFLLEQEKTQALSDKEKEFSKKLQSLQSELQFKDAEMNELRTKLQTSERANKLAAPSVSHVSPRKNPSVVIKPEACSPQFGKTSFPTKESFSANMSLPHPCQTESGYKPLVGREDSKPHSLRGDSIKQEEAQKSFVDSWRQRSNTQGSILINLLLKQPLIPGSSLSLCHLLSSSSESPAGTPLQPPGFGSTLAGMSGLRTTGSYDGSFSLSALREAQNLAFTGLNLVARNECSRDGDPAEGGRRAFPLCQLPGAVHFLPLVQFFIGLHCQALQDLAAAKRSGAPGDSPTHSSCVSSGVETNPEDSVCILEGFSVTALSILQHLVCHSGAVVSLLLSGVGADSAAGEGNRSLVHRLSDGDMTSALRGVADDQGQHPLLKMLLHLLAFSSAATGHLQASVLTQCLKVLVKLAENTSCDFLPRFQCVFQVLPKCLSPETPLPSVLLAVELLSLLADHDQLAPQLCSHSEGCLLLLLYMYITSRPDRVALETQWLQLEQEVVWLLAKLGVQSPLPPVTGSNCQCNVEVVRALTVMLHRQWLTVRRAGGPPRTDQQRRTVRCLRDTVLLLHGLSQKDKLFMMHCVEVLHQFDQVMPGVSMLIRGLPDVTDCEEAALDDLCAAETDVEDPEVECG
# PI3Kα, sequence (P42336 187-1068 limits assumed): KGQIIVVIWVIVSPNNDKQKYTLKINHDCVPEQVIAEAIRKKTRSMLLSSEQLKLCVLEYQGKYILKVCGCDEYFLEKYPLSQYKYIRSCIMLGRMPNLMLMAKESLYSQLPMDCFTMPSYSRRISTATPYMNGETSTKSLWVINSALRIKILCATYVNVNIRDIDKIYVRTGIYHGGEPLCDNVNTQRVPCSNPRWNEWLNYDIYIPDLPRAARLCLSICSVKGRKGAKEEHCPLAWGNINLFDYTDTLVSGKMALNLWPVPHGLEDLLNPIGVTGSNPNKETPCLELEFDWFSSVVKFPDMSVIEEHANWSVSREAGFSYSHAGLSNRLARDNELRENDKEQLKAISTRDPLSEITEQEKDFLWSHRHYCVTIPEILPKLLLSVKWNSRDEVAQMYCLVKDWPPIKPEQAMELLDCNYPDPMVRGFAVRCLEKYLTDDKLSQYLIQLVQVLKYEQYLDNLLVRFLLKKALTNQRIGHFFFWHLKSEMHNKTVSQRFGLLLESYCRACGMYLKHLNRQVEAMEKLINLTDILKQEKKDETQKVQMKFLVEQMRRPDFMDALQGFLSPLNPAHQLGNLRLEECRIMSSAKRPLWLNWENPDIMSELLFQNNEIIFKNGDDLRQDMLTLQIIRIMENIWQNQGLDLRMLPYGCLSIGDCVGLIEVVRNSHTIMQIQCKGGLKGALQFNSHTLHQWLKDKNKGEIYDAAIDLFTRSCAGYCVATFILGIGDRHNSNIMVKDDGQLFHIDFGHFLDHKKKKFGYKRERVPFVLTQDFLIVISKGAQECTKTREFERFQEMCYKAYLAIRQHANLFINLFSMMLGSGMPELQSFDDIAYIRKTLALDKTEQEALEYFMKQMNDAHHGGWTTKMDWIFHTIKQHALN
Compound,IC50 (DNA-PKcs) [µM],IC50 (PI3Kα) [µM],IC50 (mTOR) [µM],IC50 (ATM) [µM],selectivity in at least one secondary pharmacology target [1] [fold],IC50 (ATR) [µM],IC50 (PI3Kγ) [µM],IC50 (PI3Kβ) [µM],IC50 (PI3Kδ) [µM]
CCN1CCN(CC(=O)Nc2ccc(-c3cccc4c(=O)cc(N5CCOCC5)oc34)c3sc4ccccc4c23)CC1 [KU-0060648],0.055,0.2,0.15,> 30,< 10,> 30,–,–,–
COc1ccc([C@@H](O)c2cc(-c3ncnc4cc(N5CCOCC5)ccc34)c(F)cc2Cl)nn1 [M3814],–,–,–,> 30,–,> 30,1.59,–,–
CNC(=O)c1ccnc2c([C@H](C)CNc3cc(-c4cnc(C)nc4)ncn3)cccc12 [M9831/VX-984],0.115,> 20,> 30,> 30,–,> 30,7.1,> 30,> 30
O=c1cc(N2CCOCC2)oc2c(-c3cccc4c3sc3ccccc34)cccc12 [NU7441],0.185,7.8,1.8,> 3.1,< 10,> 30,–,–,–
